PubChem BioAssay AID338 (DTP/NCI, 2004)
Values joined by “and” are separate entries in the source; they are usually repeats but may differ in a detail not shown here. Equal entries are not always repeated. Toxic doses and inconclusive results are not listed.

Test system: BDF1 mice, P388 leukemia (terephthalanilide-resistant), survival T/C
Experiment: NCI In Vivo Anticancer Drug Screen. Data for tumor model P388 Leukemia resistant to A Terephthalanilide; NSC 38280 (intraperitoneal) in B6D2F1 (BDF1) mice
Details: endpoint: median survival time, higher = longer survival
Method: The antitumor activity of compounds was measured in mice bearing transplantable tumors. Survival or tumor size were measured and the results are expressed as the measurement made in the treated group (T) divided by the measurement made in the vehicle treated control group (C). The tumor model used in this assay is P388 Leukemia resistant to A Terephthalanilide; NSC 38280 (intraperitoneal) in B6D2F1 (BDF1) mice

[1] = dose: 6.0 mg/kg/injection, schedule: Q01DX010 (ip), vehicle: saline
[2] = dose: 12.0 mg/kg/injection, schedule: Q01DX010 (ip), vehicle: saline
[3] = dose: 2.0 mg/kg/injection, schedule: Q01DX010 (ip), vehicle: saline
[4] = dose: 8.0 mg/kg/injection, schedule: Q01DX010 (ip), vehicle: saline
[5] = dose: 18.0 mg/kg/injection, schedule: Q01DX010 (ip), vehicle: saline
[6] = dose: 3.13 mg/kg/injection, schedule: Q01DX010 (ip), vehicle: saline
[7] = dose: 16.0 mg/kg/injection, schedule: Q01DX010 (ip), vehicle: saline
[8] = dose: 32.0 mg/kg/injection, schedule: Q01DX010 (ip), vehicle: saline
[9] = dose: 40.0 mg/kg/injection, schedule: Q01DX010 (ip), vehicle: saline
[10] = dose: 27.0 mg/kg/injection, schedule: Q01DX010 (ip), vehicle: saline
[11] = dose: 25.0 mg/kg/injection, schedule: Q01DX010 (sc), vehicle: steriod suspending solution
[12] = dose: 100.0 mg/kg/injection, schedule: Q01DX010 (sc), vehicle: steriod suspending solution
[13] = dose: 18.8 mg/kg/injection, schedule: Q01DX010 (ip), vehicle: saline
[14] = dose: 37.5 mg/kg/injection, schedule: Q01DX010 (ip), vehicle: saline
[15] = dose: 75.0 mg/kg/injection, schedule: Q01DX010 (ip), vehicle: saline
[16] = dose: 150.0 mg/kg/injection, schedule: Q01DX010 (ip), vehicle: saline
[17] = dose: 250.0 mg/kg/injection, schedule: Q01DX010 (ip), vehicle: saline
[18] = dose: 54.0 mg/kg/injection, schedule: Q01DX010 (ip), vehicle: saline

With N=C(N)c1ccc(Nc2ccc(C(=N)N)cc2)cc1 the T/C (dose: 3.0 mg/kg/injection, schedule: Q01DX010 (ip), vehicle: saline) was 105 % of control, the T/C [1] was 100 % of control and the T/C [2] was 90 % of control.

For O=C1C(NC(=O)C2CCCCC2)=C(N2CC2)C(=O)C(NC(=O)C2CCCCC2)=C1N1CC1, the T/C (dose: 200.0 mg/kg/injection, schedule: Q01DX010 (ip), vehicle: saline) was 90 % of control.

CS(=O)(=O)OCCN(CCOS(C)(=O)=O)c1ccc(N=O)cc1 was tested, and the T/C (dose: 0.5 mg/kg/injection, schedule: Q01DX010 (ip), vehicle: saline) was 100 % of control, the T/C (dose: 1.0 mg/kg/injection, schedule: Q01DX010 (ip), vehicle: saline) was 109 % of control and the T/C [3] was 109 % of control and 113 % of control.

In the case of O=C(Nc1ccc(C2=NCCN2)cc1)c1ccc(C(=O)Nc2ccc(C3=NCCN3)cc2)c([N+](=O)[O-])c1, the T/C [1] is reported as 110 % of control and 122 % of control, the T/C [4] is reported as 110 % of control and 122 % of control and the T/C [2] is reported as 122 % of control. For the same molecule, the T/C [5] was 88 % of control and 105 % of control.

With CN(C)c1ccc(/C=C\c2ccnc3ccccc23)cc1 the T/C (dose: 1.5 mg/kg/injection, schedule: Q01DX010 (ip), vehicle: saline) was 91 % of control and the T/C [2] was 91 % of control.

With [I][Hg][CH2]C1COC([CH2][Hg][I])CO1 (configuration not stated) the T/C (dose: 0.78 mg/kg/injection, schedule: Q01DX010 (ip), vehicle: saline) was 91 % of control, the T/C (dose: 1.56 mg/kg/injection, schedule: Q01DX010 (ip), vehicle: saline) was 95 % of control and the T/C [6] was 91 % of control.

With Nc1nc(SCc2ccccc2)c2[nH]cnc2n1 the T/C [4] was 105 % of control, the T/C [7] was 100 % of control and 105 % of control and the T/C [8] was 121 % of control. The T/C (dose: 64.0 mg/kg/injection, schedule: Q01DX010 (ip), vehicle: saline) was 115 % of control and 122 % of control.

With CN(C)c1ccc(/C=C/c2ccnc3ccccc23)cc1 the T/C (dose: 5.0 mg/kg/injection, schedule: Q01DX010 (ip), vehicle: saline) was 100 % of control and 111 % of control, the T/C (dose: 10.0 mg/kg/injection, schedule: Q01DX010 (ip), vehicle: saline) was 100 % of control and 111 % of control and the T/C (dose: 20.0 mg/kg/injection, schedule: Q01DX010 (ip), vehicle: saline) was 90 % of control and 94 % of control. The T/C [9] was 116 % of control.

For CN=C(NC)c1ccc(NC(=O)c2ccc(C(=O)Nc3ccc(C(=NC)NC)cc3)c(Cl)c2)cc1, the T/C [5] was 105 % of control and the T/C [10] was 100 % of control.

CC/C(=C(/CC)c1ccc(O)cc1)c1ccc(O)cc1 was tested, and the T/C (dose: 12.5 mg/kg/injection, schedule: Q01DX010 (sc), vehicle: steriod suspending solution) was 90 % of control, the T/C [11] was 90 % of control and the T/C [12] was 90 % of control.

With Nc1nc(=S)c2ncn(C3OC(CO)C(O)C3O)c2[nH]1 (configuration not stated) the T/C [3] was 109 % of control, the T/C (dose: 4.0 mg/kg/injection, schedule: Q01DX010 (ip), vehicle: saline) was 104 % of control and the T/C [4] was 105 % of control. For the same molecule, the T/C [7] was 105 % of control.

In the case of CC[C@]1(O)C[C@H]2CN(CCc3c([nH]c4ccccc34)[C@@](C(=O)OC)(c3cc4c(cc3OC)N(C=O)[C@H]3[C@@](O)(C(=O)OC)[C@H](OC(C)=O)[C@]5(CC)C=CCN6CC[C@]43[C@@H]65)C2)C1, the T/C (dose: 0.03 mg/kg/injection, schedule: Q01DX010 (ip), vehicle: saline) is reported as 105 % of control, the T/C (dose: 0.03 mg/kg/injection, schedule: Q01DX Z (ip), vehicle: saline) is reported as 90 % of control and 100 % of control and the T/C (dose: 0.06 mg/kg/injection, schedule: Q01DX010 (ip), vehicle: saline) is reported as 100 % of control. The T/C (dose: 0.06 mg/kg/injection, schedule: Q01DX Z (ip), vehicle: saline) was 95 % of control, the T/C (dose: 0.12 mg/kg/injection, schedule: Q01DX010 (ip), vehicle: saline) was 111 % of control and the T/C (dose: 0.13 mg/kg/injection, schedule: Q01DX Z (ip), vehicle: saline) was 100 % of control. The T/C (dose: 0.25 mg/kg/injection, schedule: Q01DX010 (ip), vehicle: saline) was 94 % of control, the T/C (dose: 0.25 mg/kg/injection, schedule: Q01DX Z (ip), vehicle: saline) was 100 % of control and the T/C (dose: 0.5 mg/kg/injection, schedule: Q01DX Z (ip), vehicle: saline) was 95 % of control and 100 % of control.

With O=C(Nc1ccc(NC(=O)Nc2ccc(C3=NCCN3)cc2)cc1)Nc1ccc(C2=NCCN2)cc1 the T/C (dose: 110.0 mg/kg/injection, schedule: Q01DX010 (ip), vehicle: saline) was 111 % of control.

With CC1CN=C(c2ccc(NC(=O)c3cccc(C(=O)Nc4ccc(C5=NCC(C)N5)cc4)c3)cc2)N1 (configuration not stated) the T/C [2] was 100 % of control, the T/C [5] was 100 % of control and the T/C [10] was 100 % of control. For the same molecule, the T/C [9] was 88 % of control.

O=C(Nc1ccc(C2=NCCN2)cc1)c1ccc(NC(=O)c2ccc(C3=NCCN3)cc2)cc1 was tested, and the T/C [5] was 100 % of control, the T/C [10] was 100 % of control and the T/C [9] was 100 % of control. For the same molecule, the T/C (dose: 60.0 mg/kg/injection, schedule: Q01DX010 (ip), vehicle: saline) was 100 % of control.

CCCCn1cnc2c(=S)nc[nH]c21 was tested, and the T/C [7] was 86 % of control and the T/C [8] was 90 % of control.

With CS(=O)(=O)OCCCl the T/C [13] was 105 % of control, the T/C [14] was 110 % of control and 111 % of control and the T/C [15] was 111 % of control and 115 % of control. The T/C [16] was 110 % of control and 122 % of control.

In the case of O=C(O)CCCc1ccc(N(CCCl)CCCl)cc1, the T/C [6] is reported as 100 % of control and 105 % of control, the T/C (dose: 6.25 mg/kg/injection, schedule: Q01DX010 (ip), vehicle: saline) is reported as 110 % of control and 116 % of control and the T/C (dose: 12.5 mg/kg/injection, schedule: Q01DX010 (ip), vehicle: saline) is reported as 105 % of control and 120 % of control.

In the case of O=C(Nc1ccc(C2=NCCN2)cc1)c1cc(C(=O)Nc2ccc(C3=NCCN3)cc2)cc([N+](=O)[O-])c1, the T/C (dose: 167.0 mg/kg/injection, schedule: Q01DX010 (ip), vehicle: saline) is reported as 94 % of control, the T/C [17] is reported as 100 % of control and the T/C (dose: 375.0 mg/kg/injection, schedule: Q01DX010 (ip), vehicle: saline) is reported as 94 % of control. For the same molecule, the T/C (dose: 512.0 mg/kg/injection, schedule: Q01DX010 (ip), vehicle: saline) was 94 % of control.

With CN(C)c1nc(N(C)C)nc(N(C)C)n1 the T/C [13] was 100 % of control and 116 % of control, the T/C [14] was 100 % of control and 105 % of control and the T/C [15] was 100 % of control and 111 % of control. The T/C [16] was 100 % of control and 105 % of control.

C[C@]12C=CC(=O)C=C1CC[C@@H]1[C@@H]2C(=O)C[C@@]2(C)[C@H]1CC[C@]2(O)C(=O)CO was tested, and the T/C (dose: 0.12 mg/kg/injection, schedule: Q01DX Z (sc), vehicle: steriod suspending solution) was 100 % of control, the T/C (dose: 12.5 mg/kg/injection, schedule: Q01DX Z (sc), vehicle: steriod suspending solution) was 104 % of control and the T/C [11] was 105 % of control. For the same molecule, the T/C (dose: 25.0 mg/kg/injection, schedule: Q01DX Z (sc), vehicle: steriod suspending solution) was 100 % of control and 109 % of control, the T/C (dose: 50.0 mg/kg/injection, schedule: Q01DX Z (sc), vehicle: steriod suspending solution) was 100 % of control and the T/C [12] was 88 % of control. The T/C (dose: 200.0 mg/kg/injection, schedule: Q01DX010 (sc), vehicle: steriod suspending solution) was 88 % of control.

In the case of O=CCC(O)C(O)C(O)CO (configuration not stated), the T/C (dose: 62.5 mg/kg/injection, schedule: Q01DX010 (ip), vehicle: saline) is reported as 110 % of control and 111 % of control, the T/C (dose: 125.0 mg/kg/injection, schedule: Q01DX010 (ip), vehicle: saline) is reported as 100 % of control and 110 % of control and the T/C [17] is reported as 110 % of control and 111 % of control. For the same molecule, the T/C (dose: 500.0 mg/kg/injection, schedule: Q01DX010 (ip), vehicle: saline) was 115 % of control and 122 % of control.

In the case of Nc1nc2n[nH]nc2c(=O)[nH]1, the T/C (dose: 25.0 mg/kg/injection, schedule: Q01DX010 (ip), vehicle: alkali diluted with saline) is reported as 162 % of control, the T/C (dose: 50.0 mg/kg/injection, schedule: Q01DX010 (ip), vehicle: alkali diluted with saline) is reported as 162 % of control and the T/C (dose: 100.0 mg/kg/injection, schedule: Q01DX010 (ip), vehicle: alkali diluted with saline) is reported as 175 % of control. For the same molecule, the T/C (dose: 200.0 mg/kg/injection, schedule: Q01DX010 (ip), vehicle: alkali diluted with saline) was 175 % of control.

In the case of O=C(Nc1cccc(C(=O)Nc2ccc(C3=NCCN3)cc2)c1)c1ccc(C2=NCCN2)cc1, the T/C [18] is reported as 117 % of control.

In the case of C[n+]1c2ccccc2nc2c(N)cc(N)cc21, the T/C [2] is reported as 100 % of control, the T/C [5] is reported as 100 % of control and the T/C [10] is reported as 91 % of control.

In the case of CN(C)c1ccc(Nc2c3ccccc3nc3ccccc23)cc1, the T/C [7] is reported as 95 % of control, the T/C (dose: 24.0 mg/kg/injection, schedule: Q01DX010 (ip), vehicle: saline) is reported as 104 % of control and the T/C (dose: 36.0 mg/kg/injection, schedule: Q01DX010 (ip), vehicle: saline) is reported as 100 % of control and 104 % of control and 108 % of control. For the same molecule, the T/C [18] was 95 % of control and 100 % of control and 104 % of control and the T/C (dose: 80.0 mg/kg/injection, schedule: Q01DX010 (ip), vehicle: saline) was 90 % of control and 109 % of control.
